Where “and” joins values, the source holds several entries; their conditions need not be identical. Equal entries are not always repeated.
Legend:
[1] = system: Victoria mixed culture, containing strain VS; test: Batch dechlorination and growth kinetics, Victoria mixed culture; type: cell-based, Dehalococcoides species strain VS
From the text: (§1) Stock cultures. The Victoria mixed culture, containing strain VS, was maintained in a closed continuously stirred tank reactor (CSTR) as previously described. A VC enrichment of this culture, maintained over 5 years, was also used in these investigations. Liquid cultures of the three other cultures evaluated (Pinellas, KB-1/VC, and Dehalococcoides ethenogenes strain 195) were kept in anaerobic bottles, stored in an anaerobic chamber (10% H2, 10% CO2, 80% N2). The bottles were amended with TCE (1-3 μL neat liquid), VC (250 μL gas), and PCE (1-3 μL neat liquid) being added to each, respectively, approximately every two weeks.
(§2) Batch studies. For the experimental portion of this research, two studies were undertaken, one a comparative VC growth study, and the other a comparative growth and substrate utilization study with different chlorinated ethenes. These studies compared the dechlorination abilities of Dehalococcoides ethenogenes strain 195 and the Dehalococcoides-like microorganisms in the three mixed cultures (Victoria, KB-1/VC, and Pinellas).
(§3) For the first study, a VC enriched inoculum was first developed for each of the three mixed cultures. Here, bottles (120 mL) were filled with 60 mL of anaerobic media in an anaerobic chamber as previously described, and inoculated with 200 μL of each stock culture. Gaseous VC (99.5%) was added with a gas tight syringe (200 μL). The cultures were then moved to a shaker (60-80 rpm) in an anaerobic chamber (20±2° C.). Immediately after 5 μmol of ethene was formed in a bottle, 200 μL of the culture was transferred to fresh media (60 mL), in triplicate, and VC was again added (200 μL). The inoculum for the growth study was that formed after exactly 4 μmol of ethene was produced following this second transfer. To compare growth rates on VC, a range in concentration of each inocula (0.1, 0.3, 1, 3, 9 mL) was transferred to fresh media (as above) to result in a liquid volume of 60 mL, and gaseous VC (200 μL) was added to each. […] Hydrogen served as the electron donor and was non-limiting (>3%) in all studies. Headspace samples were periodically removed by syringe (250 μL) for chlorinated ethene analyses.
(§4) The purpose of the second study was to compare dechlorination rates of PCE, TCE and DCE between the three different cultures that grew on VC (Victoria, KB-1/VC and Pinellas). The development of inocula here was performed with VC, just as in the first study. For the growth and substrate utilization experiments, triplicate bottles were set up for each culture containing 1 mL of inoculum and either neat PCE (0.4 μL), neat TCE (0.3 μL), saturated DCE solution (34 μL) or gaseous VC (200 μL). To further investigate TCE removal, bottles (120 mL) were filled with 20 mL of a highly enriched culture of strain VS made from the Victoria culture. Duplicate bottles were supplied with gaseous VC (50 μL on day 0, then 150 μL on day 3) or TCE (0.4 μL neat liquid). Dechlorination was followed until all VC or TCE was converted to ethene (day 12). The change in strain VS concentration during VC and TCE utilization was then determined both by competitive PCR and by an activity procedure evaluated previously for strain VS. In the activity procedure a non-growth limiting concentration of VC (150 μL) along with excess hydrogen is added to a culture and the initial dechlorination rate is measured (over <1 day). A good estimate of strain VS concentration can then be obtained using the previously determined strain VS maximum VC utilization rate (7.8×10^−10 μmol Cl^− (cell·d)^−1). The increase in strain VS concentration during TCE or VC utilization was determined with these two procedures on the culture before and after TCE and VC utilization.
(§5) Comparative dechlorination and growth kinetics. With mixed cultures, the concentration of organisms carrying out a particular reaction is generally unknown and difficult to determine. […]

KB-1/VC culture = test: Batch dechlorination and growth kinetics, KB-1/VC culture; type: cell-based, Dehalococcoides-like microorganisms
From the text: as §1, §2, §3, §4, §5

Pinellas culture = test: Batch dechlorination and growth kinetics, Pinellas culture; type: cell-based, Dehalococcoides-like microorganisms
From the text: as §1, §2, §3, §4, §5

[2] = system: Dehalococcoides ethenogenes strain 195; test: Batch dechlorination, D. ethenogenes strain 195 culture; type: cell-based; details: cultures supplied with VC or DCE
From the text: as §1, §2
For the first study, a VC enriched inoculum was first developed for each of the three mixed cultures. Here, bottles (120 mL) were filled with 60 mL of anaerobic media in an anaerobic chamber as previously described, and inoculated with 200 μL of each stock culture. Gaseous VC (99.5%) was added with a gas tight syringe (200 μL). […]

[3] = system: VC reductive dehalogenase of Dehalococcoides sp. strain VS; test: VC-reduction enzyme assay with Ti(III)-reduced methyl viologen as electron donor, gas chromatography; type: biochemical
Experimental: Enzyme assays. Cells were harvested by centrifugation (20,000 g, 20 min, 4° C.) under strictly anoxic conditions using the anoxic chamber, washed and resuspended in degassed MOPS buffer (20 mM, pH 7.2) supplemented with 2 mM DTE and 0.2 mM titanium(III)NTA (buffer A). The buffer was incubated overnight in the anoxic chamber before addition of reducing agents. Cell-free extracts were obtained by anoxic disruption of cells by French Press treatment (138 MPa; two passages), followed by two centrifugation steps (30,000×g, 15 min, 4° C.).
Assays of VC-reduction were conducted as described previously in 2-ml glass vials under an N2/H2 atmosphere with Ti(III)-reduced methyl viologen as artificial electron donor (Rosner et al.) The protein concentration in the assay varied between 10 and 100 μg/ml. The test was started by addition of gaseous VC to the assay mix (total aqueous volume 0.3 ml), and change in VC and ethene concentrations were followed with time by gas chromatography. Experiments testing for reduction of liquid chlorinated ethenes (PCE, TCE, DCE-isomers) were carried out essentially as described above with the appropriate substitution of the chlorinated ethene. The chlorinated compounds were added from aqueous stock solutions.
Oxygen sensitivity of VC-reducing activity in cell-free extract was investigated in buffer amended with resazurin as redox indicator. Prior to addition of VC, the assay was exposed to air until the resazurin underwent a color-change from colorless to pink. Subsequently, the assay was rendered anoxic again by exchanging the gas phase inside the anoxic chamber followed by addition of Ti(III)NTA (5 mM final concentration). All enzyme assays were carried out at ambient temperature, and given activities are means of at least three independent measurements.
Partial purification of VC reductase. Protein purification was performed at 4° C. in the anoxic chamber. The membrane fraction was obtained by centrifugation of cell-free extract at 100,000×g for 90 min at 4° C. The pellet was resuspended in 1 ml buffer A supplemented with 2 mM 3-[(3-cholamidopropyl)dimethylammonio]-1-propanesulfonic acid (CHAPS), and incubated for 1 h on ice. After subsequent centrifugation (100,000×g, 90 min, 4° C.) the solubilized membrane fraction was diluted with an equal volume of buffer B (50 mM 1,3-Bis[tris(hydroxymethyl)methylamino]propane (Bis-Tris Propane), pH 9.6, 2 mM dithiothreitol, 0.2 mM titanium(III)NTA, 20 mM CHAPS), and loaded on a 1-ml HighTrap Q column (Amersham Pharmacia) equilibrated with buffer C (same as buffer B but with 2 mM CHAPS). VC reductive dehalogenase activity was eluted as a single peak (at 550 to 580 mM NaCl) with 10 ml buffer C followed by a 40-ml linear gradient from 0-700 mM NaCl in buffer C at a flow of 1 ml/min. Fractions containing the highest activity were pooled and mixed with an equal volume of buffer A containing 20 mM CHAPS, and applied to a Superose-6 column equilibrated with the same buffer. Enzyme activity was eluted with buffer A at a flow rate of 0.2 ml/min. The protein concentration of the samples was determined according to Bradford with bovine serum albumin as a standard.

For `Cl/C=C\Cl` [DCE, cis-1,2-dichloroethene], the “Maximum Growth Rate” value ([1]; VS Mixed (Victoria) culture, 95% confidence interval, least-squares model fit) was 0.46 ± 0.04 day⁻¹, the “Maximum Growth Rate” value (KB-1/VC culture; 95% confidence interval) was 0.44 ± 0.02 day⁻¹ and the “Maximum Growth Rate” value (Pinellas culture; 95% confidence interval) was 0.43 day⁻¹ and 0.43 ± 0.00 day⁻¹. The “dechlorination by D. ethenogenes strain 195” value [2] was “did dechlorinate DCE to VC”.

For `ClC(Cl)=C(Cl)Cl` [PCE, tetrachloroethene], the “transformation during the course of the enzyme assay” value ([3]; 2 h) was “not transformed”, the “effect on the reduction rate of VC” value ([3]; saturating concentrations of PCE or TCE present) was “not affected” and the “lag period before PCE dechlorination” value ([1]; Victoria mixed culture) was 6 to 12 days. For the same molecule, the PCE dechlorination (KB-1/VC culture) was “failed to dechlorinate” and the PCE dechlorination (Pinellas culture) was “failed to dechlorinate”.

B1: VC reductive dehalogenase: VC reductive dehalogenase partially purified from Dehalococcoides sp. strain VS; corrinoid/iron-sulfur cluster reductive dehalogenase (protein)
chain: MSKFHKTISRRDFMKGLGLAGAGIGAVAASAPVFHDIDELVSSEANSTKDQPWYVKHREHFDPTITVDWDIFDRYDGYQHKGVYEGPPDAPFTSWGNRLQVRMSGEEQKKRILAAKKERFPGWDGGLHGRGDQRADALFYAVTQPFPGSGEEGHGLFQPYPDQPGKFYARWGLYGPPHDSAPPDGSVPKWEGTPEDNFLMLRAAAKYFGAGGVGALNLADPKCKKLIYKKAQPMTLGKGTYSEIGGPGMIDAKIYPKVPDHAVPINFKEADYSYYNDAEWVIPTKCESIFTFTLPQPQELNKRTGGIAGAGSYTVYKDFARVGTLVQMFIKYLGYHALYWPIGWGPGGCFTTFDGQGEQGRTGAAIHWKFGSSQRGSERVITDLPIAPTPPIDAGMFEFCKTCYICRDVCVSGGVHQEDEPTWDSGNWWNVQGYLGYRTDWSGCHNQCGMCQSSCPFTYLGLENASLVHKIVKGVVANTTVFNSFFTNMEKALGYGDLTMENSNWWKEEGPIYGFDPGT
modifications: partially purified native enzyme; Dehalococcoides sp. VS
With B1 the “Sp act (VC reduction)” value ([3]; step: Anionic exchange chromotagraphy) was 638 mU/mg protein, the “Sp act (VC reduction)” value ([3]; step: Cell-free extract, 1 mU = 1 nmol VC per minute) was 220 mU/mg protein and the “Sp act (VC reduction)” value ([3]; step: Gelfiltration) was 990 mU/mg protein. The “Sp act (VC reduction)” value ([3]; step: Membrane fraction) was 346 mU/mg protein and the “Sp act (VC reduction)” value ([3]; step: Solubilized membrane fraction) was 308 mU/mg protein.

From patent US8647824B2, “Microbial reductive dehalogenation of vinyl chloride” (The Board of Trustees of the Leland Stanford Junior …, priority 2004, dated 2014)
